Like-named read-outs stand apart in the source and are kept apart here.
Test system: rat liver tissue
Method: From the nucleic acid hybridization data, a prediction score is calculated for that sample and compared to a reference score from a toxicity reference database according to the following equation. The sample prediction score=ΣwiR^FC^i. “i” is the index number for each gene in a gene expression profile to be evaluated. “wi” is the PLS weight (or PLS score, see Table 2 for an exemplary list of PLS scores for a general kidney toxicity model) for each gene. “R^FC^i” is the RMA fold-change value for the i^th gene, as determined from a normalized RMA matrix of gene expression data from the sample (described above). The PLS weight multiplied by the RMA fold-change value gives a gene regulation score for each gene, and the regulation scores for all the individual genes are added to give a prediction score for the sample.
To establish a toxicity prediction score cut-off value for a toxicity model, the true-positive and false positive rates for each possible score cut-off value are computed, using the scores from all tox and non-tox samples in the training set. This generates an ROC curve, which we use to set the cut-off score at the point on the ROC curve corresponding to ˜5% false positive rate. For example, in a kidney toxicity model of Table 2, a cut-off prediction score is about 0.318.
The conversion algorithm was tested using the liver toxicity model described in U.S. Provisional Application Ser. No. 60/559,949 and herein incorporated by reference.
The first step to using a conversion algorithm is to map microarray fragments. The RGU34 A microarray fragments which comprise the liver toxicity model were mapped to the RAE2.0 microarray. The liver toxicity model is based on 1,100 Affymetrix GeneChip® RGU34 A microarray fragments. […] See Affymetrix's “User's Guide to Product Comparison Spreadsheets” which is herein incorporated by reference.
Once the microarray fragments are mapped, training samples are selected to calculate the conversion model weights. The inventors searched Gene Logic's ToxExpress® reference database, a database which is built on the Affymetrix RGU34A platform, for samples that covered a large amount of interquartile range with respect to signal intensity. […] The samples maximized Ei(Max(Xij)−Min(Xij)), where i indexes genes and j indexes samples.
For this reason, a training set consisting of 100 compounds and vehicles from rat liver tissue was selected.
The 100 training samples were used to train the weights in the conversion algorithm. This step is important because it provides for the quantitative aspect of the conversion. The weight training was performed based on a multiple regression analysis with probe values as the independent variables and RMA expression as the sum of the dependent variables.
Test samples were evaluated using the trained conversion algorithm. The multiple regression model was built on the 11 perfect match probe intensities and generated a predicted RGU34 expression value from a weighted sum of RAE 2.0 probe values. Each test array was scaled to an average probe intensity of 10 (log scale). The conversion algorithm used is given as:
Yi^RGU34=βio+Σβij LOG(Xij^RAE2.0/S)

[1] = RAE2.0 converted RMA data, liver predictive model
[2] = RGU34 RMA data, liver predictive model

Compound: CCSCC[C@H](N)C(=O)O [Ethionine, ethionine]
- number of test samples predicted as toxic out of the total number of samples for that compound [1]: 3/3
- number of test samples predicted as toxic out of the total number of samples for that compound [2]: 3/3

Compound: [H]/N=C(/N)N[C@H]1[C@H](O)[C@@H](O)[C@H](O[C@@H]2O[C@@H](C)[C@](O)(C=O)[C@H]2O[C@@H]2O[C@@H](CO)[C@H](O)[C@@H](O)[C@@H]2NC)[C@@H](N/C(N)=N\[H])[C@@H]1O [Streptomycin, streptomycin]
- number of test samples predicted as toxic out of the total number of samples for that compound (rat, in vivo): 0/3

Compound: CN(CCOc1ccc(CC2SC(=O)NC2=O)cc1)c1ccccn1 (stereo not drawn) [Rosiglitazone, rosiglitazone]
- number of test samples predicted as toxic out of the total number of samples for that compound (rat, in vivo): 0/3

Compound: CN(C)CCC(c1ccc(Cl)cc1)c1ccccn1 (stereo not drawn) [Chlorpheniramine, chlorpheniramine]
- number of test samples predicted as toxic out of the total number of samples for that compound (rat, in vivo): 0/3

Compound: O=C(O)c1cc(-c2ccc(F)cc2F)ccc1O [Diflunisal, diflunisal]
- number of test samples predicted as toxic out of the total number of samples for that compound (rat, in vivo): 2/3

Compound: CCOC(=O)C(C)(C)Oc1ccc(Cl)cc1 [Clofibrate]
- number of test samples predicted as toxic out of the total number of samples for that compound (rat, in vivo): 0/3

Compound: CN(C)CCC=C1c2ccccc2CCc2ccccc21 [Amitryptilene]
- number of test samples predicted as toxic out of the total number of samples for that compound [1]: 2/2
- number of test samples predicted as toxic out of the total number of samples for that compound [2]: 1/2

Compound: CCC1(c2ccccc2)C(=O)NC(=O)NC1=O [Phenobarbital, phenobarbital]
- number of test samples predicted as toxic out of the total number of samples for that compound [1]: 3/3
- number of test samples predicted as toxic out of the total number of samples for that compound [2]: 3/3

Compound: C[C@]12CC[C@@H]3c4ccc(O)cc4CC[C@H]3[C@@H]1CC[C@@H]2O [Estradiol, estradiol]
- number of test samples predicted as toxic out of the total number of samples for that compound (rat, in vivo): 3/3
